Laboratory results as given in publication PMC12322260, “Anticancer activity of triterpene glycosides from the sea star Solaster pacificus” (Scientific Reports, 2025).

What was measured:
PC3-DR cells [1] = assay: MTT cytotoxicity assay; assay type: cell-based, human; conditions: Homo sapiens, 48 h, mean ± SD
Text: (§1) The cell lines were purchased from ATCC (Manassas, VA, USA) or ECACC (Salisbury, UK). The following cell lines were used: Human prostate cancer cells LNCaP (ATCC; RRID:CVCL_0395), VCaP (ECACC; RRID:CVCL_2235), 22Rv1 (ATCC; RRID:CVCL_1045), PC3 (ATCC; RRID:CVCL_0035), and DU145 (ATCC; RRID:CVCL_0105); human prostate non-cancer cells PNT2 (ATCC; RRID:CVCL_2164) and RWPE-01 (ATCC; RRID:CVCL_3791). Human non-cancer embryonic kidney cells HEK293T (ECACC; RRID:CVCL_0063) and human fibroblast cells MRC-9 (ECACC; RRID:CVCL_2629). The docetaxel-resistant cells PC3-DR were generated by long-term treatment of human prostate cancer PC3 cells with sublethal concentrations of docetaxel as previously described[32] and were provided by Prof. Z. Culig (Innsbruck Medical University, Austria). All cell lines were recently authenticated by a commercial service (Multiplexion GmbH, Heidelberg, Germany) and were cultured as previously described[58],[59]. Cells were kept in culture for a maximum of three months and were routinely examined for bacterial, fungal, and mycoplasma infections.

LNCaP cells = assay: MTT cytotoxicity assay; assay type: cell-based, human; conditions: Homo sapiens, 48 h, mean ± SD
Text: as §1

VCaP cells = assay: MTT cytotoxicity assay; assay type: cell-based, human; conditions: Homo sapiens, 48 h, mean ± SD
Text: as §1

PNT2 cells = assay: MTT cytotoxicity assay; assay type: cell-based, human; conditions: Homo sapiens; PNT2, 48 h, mean ± SD
Text: as §1

22Rv1 cells [2] = assay: MTT cytotoxicity assay; assay type: cell-based, human; conditions: Homo sapiens; 22Rv1, 48 h, mean ± SD
Text: as §1

RWPE-1 cells = assay: MTT cytotoxicity assay; assay type: cell-based, human; conditions: Homo sapiens; RWPE-1, 48 h, mean ± SD
Text: as §1

MRC-9 cells = assay: MTT cytotoxicity assay; assay type: cell-based, human; conditions: Homo sapiens, MRC9; MRC-9, 48 h, mean ± SD
Text: as §1

DU145 cells = assay: MTT cytotoxicity assay; assay type: cell-based, human; conditions: Homo sapiens, DU-145; DU145, 48 h, mean ± SD
Text: as §1

PC3 cells = assay: MTT cytotoxicity assay; assay type: cell-based, human; conditions: Homo sapiens, PC-3; PC3, 48 h, mean ± SD
Text: as §1

HEK293T cells = assay: MTT cytotoxicity assay; assay type: cell-based, human; conditions: Homo sapiens, HEK-293T, 48 h, mean ± SD
Text: as §1

22Rv1 cells [3] = assay: Western blotting of apoptotic markers; assay type: cell-based, human
Experimental: Fig. 3 Functional kinome profiling of STKs (serine/threonine kinases) in 22Rv1 cells and validation of results. (a) Expression of apoptotic markers. The cells were treated with CuC1 for the indicated time, and the expression of proteins was analyzed by Western blotting. (b, c) Functional kinome profiling. A heatmap displaying log2-transformed phosphorylation levels of 99 analyzed STK substrate peptides (b) and upstream kinase analysis, which predicted kinases affected by CuC1 (c). Values of the normalized kinase statistics represented by bars, where log2 < 0 indicates decreased kinase activity and log2 > 0 denotes increased activity. […] 22Rv1 cells were treated with CuC1 for 2 h and the MAPK expression was analyzed by Western blotting. β-actin was used as a loading control. The band intensity of the protein of interest was quantified using Image Lab software and normalized to the band intensity β-actin (a), or to the band intensity of non-phospho MAPK (d), and is indicated by red numbers. […]
Western blotting was performed as previously described. […] Proteins were transferred on a PVDF membrane and detected using specified primary and secondary antibodies. The protein signals were visualized and detected using the ECL chemiluminescence system (Thermo Scientific, Rockford, IL, USA). […] The signal (band) intensity was quantified using Image Lab v. […]

PC3-DR cells [4] = conditions: TQD 50 nM
Experimental: Viability was evaluated using MTT assay, and IC50s were calculated using GraphPad Prism software. Number of biological replicates n = 3. […] Cells (6 × 10^3 cells/well in 100 μL/well of media) were plated in 96-well plates. The plates were incubated overnight, and the medium was replaced with fresh medium containing drugs at the indicated concentrations. The plates were further incubated for 48 h, unless otherwise stated, the solution of MTT reagent in PBS was added to each well, and cells were incubated for another 2–4 h to form formazan crystals. Then the media was removed and the plates were dried overnight. 50 μL of DMSO was added to each well to dissolve the formazan crystals. The absorbance of each well was measured using an Infinite F200PRO reader (TECAN, Männedorf, Switzerland). The cell viability was estimated as an inhibition concentration (IC50), which was calculated using GraphPad Prism software v.9.1.1 (GraphPad Software, San Diego, CA, USA). IC₅₀ values were determined by fitting the data to a nonlinear regression model (log[inhibitor] versus normalized response—variable slope).

CO[C@@H]1[C@@H](O)[C@H](O[C@@H]2[C@@H](O)[C@H](O[C@H]3[C@H](O)[C@@H](O[C@@H]4OC[C@@H](O)[C@H](O)[C@H]4O)[C@H](O[C@H]4[C@H](O[C@H]5CC[C@]6(C)[C@@H]7CCC89C(=O)O[C@@](C)(/C=C\C=C(C)C)[C@H]8[C@@H](OC(C)=O)C[C@@]9(C)C7=CC[C@H]6C5(C)C)OC[C@@H](O)[C@@H]4O)O[C@@H]3C)O[C@H](CO)[C@H]2O)OC[C@H]1O (stereo partly shown) [CuC1, cucumarioside C1]
IC50 (PC3-DR cells [1]): 5690 ± 780 nM
IC50 (LNCaP cells): 3000 ± 540 nM
IC50 (VCaP cells): 472 ± 65 nM
IC50 (PNT2 cells): 754 ± 58 nM
IC50 (22Rv1 cells [2]): 246 ± 17 nM
IC50 (RWPE-1 cells): 554 ± 105 nM
IC50 (MRC-9 cells): 959 ± 248 nM
IC50 (DU145 cells): 3240 ± 340 nM
IC50 (PC3 cells): 1590 ± 120 nM
IC50 (HEK293T cells): 660 ± 50 nM
signs of cell death (apoptotic markers) (22Rv1 cells [3]; 22Rv1, 0.5 μM, 2 h): did not induce any signs of cell death
apoptotic markers (22Rv1 cells [3]; 22Rv1, 24 h of treatment): apoptotic markers such as cleaved PARP and caspase-3 were detected
effect of co-treatment with tariquidar on cytotoxicity (PC3-DR cells [4]): did not alter cytotoxicity
